Entries after “also recorded” stand apart in the source; their conditions may differ.
Assays:
[1] = molecular target: LRRK2 (Homo sapiens, UniProt Q5S007); experiment: NanoBRET-based ternary binding and cooperativity assay; parameters: host or cells: HEK293 (digitonin-permeabilized); settings: permeabilized HEK293 cells, without VCB; read-out: IC50 LRRK2 engagement in the absence of VCB
Procedure: The HEK293 cells were transfected with LRRK2-NanoLuc fusion vector (Promega, NV3401) following Promega's protocol and seeded into white 384-well plate (Corning3570) at a density of 6000 cells/well. The cells were then treated with 50 μg/mL of digitonin, 125 nM of LRRK2 tracer, testing compounds at decreasing concentrations (11 concentrations with 2-fold serial dilution starting from 10 μM) or testing compounds and VCB mix (11 concentrations with 2-fold serial dilution starting from 10 μM compound for the compound. The first 6 concentrations of VCB start from 32 μM with 2-fold dilution, the last 5 concentrations of VCB keep at 1 μM), and NanoBRET NanoGlo Substrate (Promega) at concentration recommended by the manufacturer's protocol. In the maximum signal control samples (DMSO control), DMSO was added instead of testing compounds. In the minimum signal control samples (no tracer control), DMSO and LRRK2 tracer dilution buffer were used to replace testing compounds and LRRK2 tracer separately. The filtered luminescence was measured within 10 min following addition of the substrate on a PHERAstar (BMG LABTECH) plate reader equipped with a 450-nm bandpass filter (donor) and a 600-nm long pass filter (acceptor). The fractional occupancy was calculated according to the equation: fractional occupancy=(mBRETtesting compound−mBRETno tracer control)/(mBRETDMSO control−mBRETno tracer control).

[2] = system: LRRK2 pSer935; experiment: LRRK2 Ser935 dephosphorylation (immunoblot) in LRRK2^G2019S MEFs; assay type: cell-based, mouse; settings: for EC50: Mus musculus, dose response; for T1/2 GS-pSer935-LRRK2: LRRK2^G2019S MEFs
Procedure: Western blot degradation assays for the LRRK2 protacs were performed with WT and PD-associated LRRK2 [G2019S] mouse embryonic fibroblasts (MEFs). The second-generation PROTACs were tested in parallel with the first generation PROTACs SD75, SD82, and SD100. The compounds were tested at 33 nM or […] concentrations for 4 hours or 24 hours, running two biological replicates per condition and achieving quantifications representative of both replicates. Analysis by quantitative immunoblotting was performed with readouts of the total LRRK2 (antibody recognizes epitope in C-terminus of protein), Rab10 pThr73 (physiological substrate) and LRRK2 pSer935 (biomarker phosphorylation site).
Primary MEFs were generated as described in a previous study (Wiggin et al., Mol. Cell Biol. 2002 April; 22(8):2871-81.). Briefly, the uterine horn was collected from adult female mice at day E12.5 and transferred to a 10 cm tissue culture dish containing cold PBS. Two forceps were used to tear the yolk sacs to isolate each embryo. Forceps were cleaned thoroughly with 70% ethanol between each embryo isolation. The embryos were culled, and a tissue piece was collected in a PCR tube for genotyping. The red tissue of the embryo, which grows to become the heart and liver, was removed. The remainder of the embryo was minced with a scalpel blade and incubated with 7.5 ml trypsin-EDTA solution for 10 minutes in a 37° C. tissue culture CO2 incubator. The dish was removed from the incubator and checked under a light microscope for single cells. 7.5 ml complete media was added to the trypsinised cells, and the cell suspension was transferred to a 15 ml Falcon tube, centrifuged at 1200 rpm for 5 minutes at room temperature. The trypsin was aspirated, the cell pellet was resuspended in 5 ml fresh complete media, and the cell suspension was plated in a 60 mm tissue culture dish and incubated in a 37° C., 5% CO2 tissue culture incubator. The MEFs at this stage were considered as passage 0 and were passaged and expanded for experimental use once the genotype was confirmed by allelic sequencing and immunoblotting. MEFs were cultured in Dulbecco's modified Eagle medium (DMEM) containing 10% (v/v) fetal bovine serum (FBS), 2 mM L-glutamine, 100 U/ml penicillin, and 100 μg/ml streptomycin supplemented with 1× non-essential amino acids and 1 mM sodium pyruvate.
Culturing and passaging of adherent cell lines were carried out using aseptic technique in CL1 or CL2 (for PBMC isolation) biological safety cabinets. All cells were incubated in a 37° C. incubator with 5% CO2. Cell lines were regularly tested for mycoplasma contamination. For western blot assay, the cells were seeded in 6-well plates. After treating with testing compounds at indicated concentrations and time period, the media was removed and the cells were washed with PBS and lysed in 100 μl ice-cold complete lysis buffer containing 50 mM Tris-HCl pH 7.4, 1 mM EGTA, 10 mM 2-glycerophosphate, 50 mM sodium fluoride, 5 mM sodium pyrophosphate, 270 mM sucrose, supplemented with 1 μg/ml microcystin-LR, 1 mM sodium orthovanadate, complete EDTA-free protease inhibitor cocktail (Roche) and 1% (v/v) Triton X-100. The cells were immediately placed on ice and were scraped and collected into 1.5 ml Eppendorf tubes. Cell lysates were incubated on ice for 10 minutes prior to centrifugation at 15,000 g at 4° C. for 15 minutes. The cell pellet was discarded, and supernatant was collected for analysis by quantitative immunoblotting. For long term storage, the supernatant was flash frozen and stored at −80° C. Protein concentrations of cell lysates were determined using the Bradford assay.
Cell lysates containing a quarter of a volume of 4× NuPAGE LDS sample buffer (NP0007) supplemented with 5% β-mercaptoethanol, were heated at 95° C. for 5 minutes. […]

[3] = molecular target: VHL (Homo sapiens, UniProt P40337); experiment: Fluorescence polarization competitive binding assay; settings: for Ki: displacement of FAM-labelled HIF-1α peptide from VCB
Procedure: FP competitive binding assays were performed following the method described previously (Bond et al, J. Med. Chem. 2021, 64 (20), 15477-15502.). All the measurements were taken on a PHERstar (BMG LABTECH) plate reader installed with a FP filter that sets excitation and emission wavelengths at 485 nm and 520 nM separately. Each well of 384-well plate (Coring 3575) contains 10 nM VCB protein, 5 nM FAM-lableled HIF-1α peptide (FAM-DEALAHyp[…], “JC9”), and decreasing concentrations of PROTACs (14 concentrations with 2-fold serial dilution starting from 250 μM) in FP assay buffer (100 mM Bis-Tris propane, 100 mM NaCl, 1 mM TCEP, pH 7) with a final DMSO concentration of 5%. The control wells containing the VCB and JC9 with no compound are set as the maximum signals (zero displacement). And the control wells containing JC9 in the absence of protein are set as the minimum signals. Control values were used to obtain the percentage of displacement which was graphed against Log [Compound]. Average IC50 values were determined for each titration using nonlinear regression analysis with Prism (v.9.3.1).

Compound	IC50 [1] [nM]	EC50 ([2]; 4 h treatment) [nM]	T1/2 GS-pSer935-LRRK2 ([2]; time course at 300 nM) [h]	Ki [3] [nM]	binding to VHL (in words) ([3]; fluorescence polarization)	EC50 ([2]; 24 h treatment) [nM]	T1/2 GS-pSer935-LRRK2 ([2]; time course at 1000 nM) [h]
CNc1nc(Nc2ccc(C(=O)N3CCN(C[C@H]4CC[C@@H](CSC(C)(C)[C@H](NC(=O)C5(F)CC5)C(=O)N5C[C@H](O)CC5C(=O)NCc5ccc(-c6scnc6C)cc5)CC4)CC3)cc2OC)ncc1Cl (some centres unmarked) [XL01134]	1100	5	0.3	160			
CNc1nc(Nc2ccc(C(=O)N3CCN(C[C@H]4CC[C@H](CSC(C)(C)[C@H](NC(=O)C5(F)CC5)C(=O)N5C[C@@H](O)CC5C(=O)NCc5ccc(-c6scnc6C)cc5)CC4)CC3)cc2OC)ncc1Cl (stereo partly drawn) [Cis-XL01126, (2S,4S)-1-((R)-3-((((1r,4R)-4-((4-(4-((5-chloro-4-(methylamino)pyrimidin-2-yl)amino)-3-methoxybenzoyl)piperazin-1-yl)methyl)cyclohexyl)methyl)thio)-2-(1-fluorocyclopropane-1-carboxamido)-3-methylbutanoyl)-4-hydroxy-N-(4-(4-methylthiazol-5-yl)benzyl)pyrrolidine-2-carboxamide]				> 50000	does not bind to VHL E3 ligase; also recorded: did not displace the fluorescent tracer		
CNc1nc(Nc2ccc(C(=O)N3CCN(CCOCCOCCSC(C)(C)[C@H](NC(=O)C4(F)CC4)C(=O)N4C[C@H](O)C[C@H]4C(=O)NCc4ccc(-c5scnc5C)cc4)CC3)cc2OC)ncc1Cl [SD75, (2S,4R)-1-((R)-3-((2-(2-(2-(4-(4-((5-chloro-4-(methylamino)pyrimidin-2-yl)amino)-3-methoxybenzoyl)piperazin-1-yl)ethoxy)ethoxy)ethyl)thio)-2-(1-fluorocyclopropane-1-carboxamido)-3-methylbutanoyl)-4-hydroxy-N-(4-(4-methylthiazol-5-yl)benzyl)pyrrolidine-2-carboxamide]	1100			820		279	1.4
CNc1nc(Nc2ccc(C(=O)N3CCN(C[C@H]4CC[C@H](CSC(C)(C)[C@H](NC(=O)C5(F)CC5)C(=O)N5C[C@H](O)CC5C(=O)NCc5ccc(-c6scnc6C)cc5)CC4)CC3)cc2OC)ncc1Cl (stereo partly drawn) [XL01126, (2S,4R)-1-((R)-3-((((1R,4R)-4-((4-(4-((5-chloro-4-(methylamino)pyrimidin-2-yl)amino)-3-methoxybenzoyl)piperazin-1-yl)methyl)cyclohexyl)methyl)thio)-2-(1-fluorocyclopropane-1-carboxamido)-3-methylbutanoyl)-4-hydroxy-N-(4-(4-methylthiazol-5-yl)benzyl)pyrrolidine-2-carboxamide]	2000	9	0.3	908 to 5950			
